Tests used:
[1] = test system: mPTP; test: mPTP activity (Ca2+ retention) assay in isolated rat brain mitochondria; assay type: biochemical; details: for mPTP Rat brain pIC50: isolated rat brain mitochondria, Fluo5N fluorescence at 10 min after Ca2+ (75 μM) bolus
Description: MPTP activity was measured in brain mitochondria freshly isolated from female Sprague Dawley (250 to 300 gram) rats. Anaesthetised rats were perfused in-situ with ~40 ml cold Dulbecco's Phosphate Buffered Saline (DPBS), then brains dissected and transferred into 30 ml Isolation Buffer (225 mM mannitol, 75 mM sucrose, 1 mM EGTA, adjusted to pH 7.4 with 1M NaOH). The brain was minced using tweezers and a scalpel into ~5 mm pieces then transferred into a 50 ml Potterton Dounce homogenization tube on ice containing 10 ml ice-cold isolation buffer (as above with addition of Complete Protease inhibitor; 1 tablet per 50 ml buffer). Homogenisation was carried out using a Teflon® pestle at 1800 rpm. The slurry was centrifuged at 2000 g for 10 min at 4° C., then the supernatant centrifuged at 12,000 g for 9 min. The pellet was resuspended with a dounce homogeniser in isolation buffer as above but with the addition of 0.02% digitonin, centrifuged at 12,000 g for 11 min and finally resuspended in 5 ml modified isolation buffer (as above but with EGTA reduced to 0.1 mM).
Test compounds were prepared in 384 well polypropylene assay plates as described above for the liver mitochondria assay. A stock mitochondria/Fluo5N assay solution was prepared in 5.6 ml assay buffer (120 mM mannitol, 40 mM MOPS, 5 mM KH2PO4, 60 mM KCl, 10 mM pyruvate, 2 mM malate, 2 mM MgCl2, 20 μM ADP, 1.26 μM oligomycin A, adjusted to pH 7.4) supplemented with Fluo5N pentapotassium salt (2 μM) and 1 ml mitochondria suspension, then transferred (15 μl) into the assay plate containing test compounds and incubated for 10 min at RT. Assay plates were then transferred to a FLIPR Tetra plate reader (Molecular Devices). Dye fluorescence was then measured every 3 sec for a total of 10 min.

[2] = test system: mPTP; test: mPTP activity (Ca2+ retention) assay in isolated rat liver mitochondria; assay type: biochemical; details: for mPTP Rat liver pIC50*: isolated rat liver mitochondria, Fluo5N fluorescence at 10 min after CaCl2 (75 μM) bolus, DMSO 0%, 5 μM cyclosporin A 100% inhibition
Excerpt: Pharmacological inhibition or modulation of the mPTP can be measured in well characterised ‘Ca^2+ retention’ assays performed in isolated mitochondria. In vitro, isolated mitochondria rapidly sequester exogenous Ca^2+ until the intramitochondrial Ca^2+ concentration reaches the threshold for mPTP activation. Once the pore is activated, mitochondrial integrity is compromised and the stored Ca^2+ is released. The distribution of Ca^2+ between extra- and intra-mitochondrial compartments can be measured in real time with the use of membrane-impermeant Ca^2+ sensitive fluorescent dyes. Depending on the configuration of the assay, inhibition or modulation of the mPTP either delays the opening of the pore or increases the concentration of Ca^2+ required to induce mPTP opening.
MPTP activity was measured in mitochondria freshly isolated from female Sprague Dawley (250 to 300 gram) rat livers using the following method. Cervical dislocation was performed on the rat. The liver was then perfused in-situ with ~40 ml cold Dulbecco's Phosphate Buffered Saline (DPBS) prior to dissection and transferred into 30 ml Isolation Buffer (250 mM Sucrose, 10 mM KCl, 1 mM EGTA, 1 mM EDTA, 25 mM HEPES, adjusted to pH 7.5 with 1M NaOH). Each lobe of the liver was then removed from the buffer, minced using tweezers and a scalpel into ~5 mm pieces then transferred into a 50 ml Potterton dounce homogenization tube on ice containing 30 ml ice-cold centrifugation buffer (300 mM Trehalose, 25 mM HEPES, 1 mM EGTA, 1 mM EDTA, 10 mM KCl, adjusted to pH 7.5 with 1M NaOH and supplemented with 0.1% bovine serum albumin (BSA) and complete protease inhibitor cocktail (one tablet of inhibitor per 50 mls of buffer). Homogenisation was carried out using a Teflon® pestle at 1800 rpm. The slurry was centrifuged at 800 g for 10 min at 4° C., then the supernatant centrifuged at 10,000 g for 10 min. The pellet was washed once with FLIPR assay buffer (75 mM Mannitol, 25 mM Sucrose, 5 mM Potassium Phosphate Monobasic, 20 mM Tris base, 100 mM KCl, 0.1% BSA adjusted to pH 7.4 with 5M HCl) centrifuged again, then resuspended in FLIPR assay buffer to a concentration of 8.8 mg/ml protein.
Tested compounds (10 mM stock in DMSO) were serially diluted in DMSO in half log steps to generate 10 test concentrations (final concentrations in assay 30 μM to 1 nM). An intermediate dilution of 5 μl DMSO samples into 247 μl FLIPR assay buffer was carried out prior to transfer of 5 μl into duplicate wells of a 384 well polypropylene assay plate. Control wells were 0.5% (v/v) DMSO and 5 μM cyclosporin A.
A stock mitochondria/Fluo5N assay solution was prepared in 5.6 ml FLIPR assay buffer (at RT) supplemented with succinate disodium salt (10 mM), rotenone (1 μM), Fluo5N pentapotassium salt (2 μM) and 1 ml mitochondria suspension, then transferred (15 μl) into the assay plate containing test compounds and incubated for 10 min at RT. Assay plates were processed for fluorescence detection on either a FLIPR Tetra (Molecular Devices) or CLARIOstar (BMG) plate reader. For kinetic fluorescence detection on the FLIPR, dye fluorescence was measured every 3 sec for a total of 10 min. After 12 sec, a 2.5 μl bolus of CaCl2 (75 μM) was added from a source plate containing 675 μM CaCl2 in FLIPR assay buffer. Alternatively, the 2.5 μl addition of CaCl2 was performed using a Viaflow 384, plates were incubated at RT for 10 min, and dye fluorescence measured after 10 min on the CLARIOstar plate reader. pIC50 values for tested compounds were calculated using the fluorescence value collected at the 10 min timepoint on either plate reader, with % inhibition calculated using the DMSO control and cyclosporin A values as 0 and 100% respectively.

mPTP Rat brain pIC50 [1]	mPTP Rat liver pIC50* [2]	Structure (SMILES)	activity in the rat liver mitochondria assay (ranking in words) ([2]; among tested Example compounds)	activity in the rat brain mitochondria assay (ranking in words) ([1]; among tested Example compounds)
6.92	5.28	O=C(c1cncc(=O)[nH]1)N1CC(c2ccccc2Cl)C2(CCC2)C1 (single isomer, unassigned) [Example 30a, 6-(8-(2-chlorophenyl)-6-azaspiro[3.4]octane-6-carbonyl)pyrazin-2(1H)-one]	–	–
<4.52	<4.52	O=C(c1cncc(=O)[nH]1)N1CC(c2ccccc2Cl)C2(CCC2)C1 (single isomer, unassigned) [Example 30b, 6-(8-(2-chlorophenyl)-6-azaspiro[3.4]octane-6-carbonyl)pyrazin-2(1H)-one]	–	–
7.22	6.17	O=C(c1cncc(=O)[nH]1)N1CC(c2cccc(Cl)c2)C2(CCC2)C1 (single isomer, unassigned) [Example 31a, 6-(8-(3-chlorophenyl)-6-azaspiro[3.4]octane-6-carbonyl)pyrazin-2(1H)-one]	–	–
<4.52	4.58	O=C(c1cncc(=O)[nH]1)N1CC(c2cccc(Cl)c2)C2(CCC2)C1 (single isomer, unassigned) [Example 31b, 6-(8-(3-chlorophenyl)-6-azaspiro[3.4]octane-6-carbonyl)pyrazin-2(1H)-one]	–	–
7.19	5.87	O=C(c1cncc(=O)[nH]1)N1CC(c2cc(Cl)ccc2F)C2(CCC2)C1 (single isomer, unassigned) [Example 32a]	–	–
<4.52	<4.52	O=C(c1cncc(=O)[nH]1)N1CC(c2cc(Cl)ccc2F)C2(CCC2)C1 (single isomer, unassigned) [Example 32b]	–	–
7.32	5.77	O=C(c1cncc(=O)[nH]1)N1CC(c2cccc(Cl)c2F)C2(CCC2)C1 (single isomer, unassigned) [Example 33a, 6-(8-(3-chloro-2-fluorophenyl)-6-azaspiro[3.4]octane-6-carbonyl)pyrazin-2(1H)-one]	–	–
<4.52	<4.52	O=C(c1cncc(=O)[nH]1)N1CC(c2cccc(Cl)c2F)C2(CCC2)C1 (single isomer, unassigned) [Example 33b, 6-(8-(3-chloro-2-fluorophenyl)-6-azaspiro[3.4]octane-6-carbonyl)pyrazin-2(1H)-one]	–	–
7.37	5.57	O=C(c1noc(=O)[nH]1)N1CC(c2ccccc2)C2(CCC2)C1 (single isomer, unassigned) [Example 34a, 3-(8-phenyl-6-azaspiro[3.4]octane-6-carbonyl)-1,2,4-oxadiazol-5(4H)-one]	–	–
<4.52	<4.52	O=C(c1noc(=O)[nH]1)N1CC(c2ccccc2)C2(CCC2)C1 (single isomer, unassigned) [Example 34b, 3-(8-phenyl-6-azaspiro[3.4]octane-6-carbonyl)-1,2,4-oxadiazol-5(4H)-one]	–	–
7.5	6.82	O=C(c1cncc(=O)[nH]1)N1CC(c2ccc(F)cc2)C2(CCC2)C1 (single isomer, unassigned) [Example 35a, 6-(8-(4-fluorophenyl)-6-azaspiro[3.4]octane-6-carbonyl)pyrazin-2(1H)-one]	highest activity	–
5.79	5.57	O=C(c1cncc(=O)[nH]1)N1CC(c2ccc(F)cc2)C2(CCC2)C1 (single isomer, unassigned) [Example 35b, 6-(8-(4-fluorophenyl)-6-azaspiro[3.4]octane-6-carbonyl)pyrazin-2(1H)-one]	–	–
7.53	6.65	O=C(c1cc(O)no1)N1CC(c2ccc(F)cc2)C2(CCC2)C1 (single isomer, unassigned) [Example 36a, (8-(4-fluorophenyl)-6-azaspiro[3.4]octan-6-yl)(3-hydroxyisoxazol-5-yl)methanone]	–	highest activity
<4.52	<4.52	O=C(c1cc(O)no1)N1CC(c2ccc(F)cc2)C2(CCC2)C1 (single isomer, unassigned) [Example 36b, (8-(4-fluorophenyl)-6-azaspiro[3.4]octan-6-yl)(3-hydroxyisoxazol-5-yl)methanone]	–	–
7.28	5.99	O=C(c1cncc(=O)[nH]1)N1CC(c2ccc(F)cc2F)C2(CCC2)C1 (single isomer, unassigned) [Example 37a, 6-(8-(2,4-difluorophenyl)-6-azaspiro[3.4]octane-6-carbonyl)pyrazin-2(1H)-one]	–	–
<4.52	<4.52	O=C(c1cncc(=O)[nH]1)N1CC(c2ccc(F)cc2F)C2(CCC2)C1 (single isomer, unassigned) [Example 37b, 6-(8-(2,4-difluorophenyl)-6-azaspiro[3.4]octane-6-carbonyl)pyrazin-2(1H)-one]	–	–
7.34	6.41	O=C(c1cc(O)no1)N1CC(c2cccc(F)c2)C2(CCC2)C1 (single isomer, unassigned) [Example 38a, (8-(3-fluorophenyl)-6-azaspiro[3.4]octan-6-yl)(3-hydroxyisoxazol-5-yl)methanone]	–	–
<4.52	<4.52	O=C(c1cc(O)no1)N1CC(c2cccc(F)c2)C2(CCC2)C1 (single isomer, unassigned) [Example 38b, (8-(3-fluorophenyl)-6-azaspiro[3.4]octan-6-yl)(3-hydroxyisoxazol-5-yl)methanone]	–	–
7.41	6.47	O=C(c1cc(O)no1)N1CC(c2cccc(F)c2F)C2(CCC2)C1 (single isomer, unassigned) [Example 39a, (8-(2,3-difluorophenyl)-6-azaspiro[3.4]octan-6-yl)(3-hydroxyisoxazol-5-yl)methanone]	–	–
<4.52	<4.52	O=C(c1cc(O)no1)N1CC(c2cccc(F)c2F)C2(CCC2)C1 (single isomer, unassigned) [Example 39b, (8-(2,3-difluorophenyl)-6-azaspiro[3.4]octan-6-yl)(3-hydroxyisoxazol-5-yl)methanone]	–	–

— US20260226031A1, “NOVEL COMPOUNDS” (NRG THERAPEUTICS LTD., priority 2023, published 2026)
